Consider one compound from patent US20150342959A1, “METHODS AND COMPOSITIONS FOR SUSTAINED N[…]” (DemeRx, Inc., priority 2014, published 2015).

Structures are written as SMILES.

The test system of data set [1] is healthy, drug-free male volunteers. The data set can be described thus: Pupillometry (pupillary miosis, dark-adapted pupil diameter). It counts as in vivo, human. Conditions: adjusted for baseline, p>0.9. Here is the method:
(§1) Pulse oximetry and capnography data were collected continuously using a GE Carescape B650 monitoring system from 2 hours prior to dosing and until six hours after dosing, and thereafter at 12, 24, 48 and 72 hours post-dosing. Additional oximetry data were collected at 120, 168 and 216 hours. Pupillary miosis was assessed by pupillometry. Dark-adapted pupil diameter was measured in triplicate using a Neuroptics PLR-200 pupillometer under standardized light intensity (<5 lux) pre-dose, and at 2, 4, 6, 12, 24, 48, 72, 96, 120, 168 and 216 hours post-dosing.
(§2) Summary statistics (means, standard deviations, and coefficients of variation) were determined for each dose group for safety laboratory test data, ECG and pharmacokinetic parameters, and pharmacodynamic variables. Categorical variables were analysed using counts and percentages. Dose-proportionality of AUC and Cmax was assessed using linear regression. The effect of dose on pharmacodynamic parameter values over time was assessed using two-factor analysis of variance (ANOVA). Pairwise comparisons (with Tukey-Kramer adjustment) between each dose group to the placebo were conducted at each time point using the least squares estimates obtained from the ANOVA, using SAS Proc Mixed (SAS ver 6.0).

For data set [2] the test system is unchanged. The data set can be described thus: Cold pressor test (analgesic effect). It counts as in vivo, human. The settings on record: adjusted for baseline. Here is the method:
as §2
Analgesic effect was assessed based on duration of hand immersion in ice water and on visual analog scale (VAS) pain scores upon hand removal from the water bath.
(§3) Safety and tolerability of noribogaine were tested in the group of volunteers from Example 1. Cold pressor testing was conducted in 1° C. water according to the method of Mitchell et al. (J Pain 5:233-237, 2004) pre-dose, 6, 24, 48, 72 and 216 hours post-dosing. Safety evaluations included clinical monitoring, recording of adverse events (AEs), safety laboratory tests, vital signs, ECG telemetry from −2 h to 6 h after dosing, and 12-lead electrocardiograms (ECGs) up to 216 hours post-dosing.

For data set [3] the test system is unchanged. As to the kind of experiment: Safety and tolerability of noribogaine in healthy humans (adverse events, vital signs, ECG). Format: in vivo, human. Here is the method: as §1, §3
For data set [4], the system named is opioid-dependent participants. As to the kind of experiment: Time to resumption of morphine (opioid substitution treatment, OST). It counts as in vivo, human.
For data set [5], the system named is opioid-dependent participants. As to the kind of experiment: Opiate withdrawal scales (COWS, SOWS, OOWS). Format: in vivo, human. Conditions: first six hours following dosing. As for the experimental part:
Patients were evaluated based on the Clinical Opiate Withdrawal Scale (COWS), Subjective Opiate Withdrawal Scale (SOWS), and Objective Opiate Withdrawal Scale (OOWS) scoring systems over the period of time between administration of noribogaine (or placebo) until resumption of OST. These scales are outlined in Guidelines for the Psychosocially Assisted Pharmacological Treatment of Opioid Dependence, World Health Organization, Geneva (2009), Annex 10, which is incorporated herein by reference in its entirety. The scales measure the intensity of withdrawal symptoms, based on clinical, subjective, and objective indicia.

Data set [6] is described as follows: Pharmacokinetics in opioid-dependent patients (Phase IB study, serum noribogaine). The settings on record: 60, 120, 180 mg.

With `CC[C@H]1CC2C[C@H]3c4[nH]c5ccc(O)cc5c4CCN(C2)C13` [noribogaine], the “pupil diameter, each dose group vs placebo by ANOVA” value in data set [1] is listed as “no statistically significant differences”. Further, the “VAS pain scores, each dose group vs placebo by ANOVA” value in data set [2] (p=0.17) is recorded as “no statistically significant differences”. In data set [2] (p>0.9), the “duration of hand immersion, each dose group vs placebo by ANOVA” value is listed as “no statistically significant differences”. In addition, the values for the adverse events reported result in data set [3] (3 mg dose group), in data set [3] (10 mg dose group) and in data set [3] (30 mg dose group) were “five adverse events were reported by two subjects”, “one adverse event was reported by single subjects” and “one adverse event was reported by single subjects”, respectively. In addition, the “changes in oximetry, capnography, respiratory rate” value in data set [3] (3-60 mg) is “no changes in oximetry or capnography, or changes in respiratory rate”. Further, in data set [3] (3-60 mg), the “changes in vital signs or safety laboratory tests” value is recorded as “no changes in vital signs or safety laboratory tests of note”. In addition, the “Time to resumption of OST” value in data set [4] (180 mg, longer than untreated patients (7 hours, not shown) or 60 mg) is greater than 7 h. In addition, the “average time to resumption of opioids” value in data set [4] (single 120 mg dose) is “greater than 20 hours”. The “withdrawal symptoms (COWS, OOWS, SOWS)” value in data set [5] (120 mg) is on record as “fewer withdrawal symptoms than the other patients”. In addition, the “withdrawal symptoms, noribogaine vs placebo” value in data set [5] (60, 120, 180 mg) is “placebo generally experienced more withdrawal symptoms than patients who were administered noribogaine”. Moreover, in data set [6], the “Maximum serum concentration of noribogaine (Cmax), dose dependence” value is given as “increased in a dose-dependent manner”.
